# ChEMBL document CHEMBL1275533, “In vitro antibacterial activity of vertilmicin and its susceptibility to modifications by the recombinant AAC6'-APH2'' enzyme” (2008)
# Calls of active or inactive are those of the source. The rule behind the calls is not given here.
# Experiments:
# [1] = system: Pseudomonas aeruginosa; test: Antibacterial activity against gentamicin-resistant Pseudomonas aeruginosa clinical isolate after 18 hrs by agar dilution method; assay type: functional
# [2] = system: Staphylococcus epidermidis; test: Antibacterial activity against non-gentamicin-resistant Staphylococcus epidermidis clinical isolate after 18 hrs by agar dilution method; assay type: functional
# [3] = system: Morganella morganii; test: Antibacterial activity against non-gentamicin-resistant Morganella morganii clinical isolate after 18 hrs by agar dilution method; assay type: functional
# [4] = system: Klebsiella pneumoniae; test: Antibacterial activity against non-gentamicin-resistant Klebsiella pneumoniae clinical isolate assessed as susceptible isolates after 18 hrs by agar dilution method; assay type: functional
# [5] = system: Citrobacter koseri; test: Antibacterial activity against non-gentamicin-resistant Citrobacter diversus clinical isolate after 18 hrs by agar dilution method; assay type: functional
# [6] = system: Pseudomonas aeruginosa; test: Antibacterial activity against non-gentamicin-resistant Pseudomonas aeruginosa clinical isolate after 18 hrs by agar dilution method; assay type: functional
# [7] = system: Citrobacter freundii; test: Antibacterial activity against non-gentamicin-resistant Citrobacter freundii clinical isolate assessed as susceptible isolates after 18 hrs by agar dilution method; assay type: functional
# [8] = system: Enterobacter cloacae; test: Antibacterial activity against gentamicin-resistant Enterobacter cloacae clinical isolate assessed as susceptible isolates after 18 hrs by agar dilution method; assay type: functional
# [9] = system: Staphylococcus aureus; test: Antibacterial activity against gentamicin-resistant Staphylococcus aureus clinical isolate assessed as susceptible isolates after 18 hrs by agar dilution method; assay type: functional
# [10] = system: Serratia marcescens; test: Antibacterial activity against non-gentamicin-resistant Serratia marcescens clinical isolate assessed as susceptible isolates after 18 hrs by agar dilution method; assay type: functional
# [11] = system: Morganella morganii; test: Antibacterial activity against gentamicin-resistant Morganella morganii clinical isolate assessed as susceptible isolates after 18 hrs by agar dilution method; assay type: functional
# [12] = system: Klebsiella pneumoniae; test: Antibacterial activity against gentamicin-resistant Klebsiella pneumoniae clinical isolate after 18 hrs by agar dilution method; assay type: functional
# [13] = system: Pseudomonas aeruginosa; test: Antibacterial activity against gentamicin-resistant Pseudomonas aeruginosa clinical isolate assessed as susceptible isolates after 18 hrs by agar dilution method; assay type: functional
# [14] = system: Klebsiella aerogenes; test: Antibacterial activity against gentamicin-resistant Enterobacter aerogenes clinical isolate after 18 hrs by agar dilution method; assay type: functional
# [15] = system: Acinetobacter calcoaceticus; test: Antibacterial activity against non-gentamicin-resistant Acinetobacter calcoaceticus clinical isolate after 18 hrs by agar dilution method; assay type: functional
# [16] = system: Serratia marcescens; test: Antibacterial activity against gentamicin-resistant Serratia marcescens clinical isolate after 18 hrs by agar dilution method; assay type: functional
# [17] = system: Staphylococcus aureus; test: Antibacterial activity against non-gentamicin-resistant Staphylococcus aureus clinical isolate after 18 hrs by agar dilution method; assay type: functional
# [18] = system: Klebsiella pneumoniae; test: Antibacterial activity against non-gentamicin-resistant Klebsiella pneumoniae clinical isolate after 18 hrs by agar dilution method; assay type: functional
# [19] = system: Haemophilus influenzae; test: Antibacterial activity against non-gentamicin-resistant Haemophilus influenzae clinical isolate after 18 hrs by agar dilution method; assay type: functional
# [20] = system: Pseudomonas sp.; test: Antibacterial activity against gentamicin-resistant Pseudomonas spp. clinical isolate assessed as susceptible isolates after 18 hrs by agar dilution method; assay type: functional
# [21] = system: Enterobacter cloacae; test: Antibacterial activity against non-gentamicin-resistant Enterobacter cloacae clinical isolate assessed as susceptible isolates after 18 hrs by agar dilution method; assay type: functional
# [22] = system: Morganella morganii; test: Antibacterial activity against gentamicin-resistant Morganella morganii clinical isolate after 18 hrs by agar dilution method; assay type: functional
# [23] = system: Haemophilus parainfluenzae; test: Antibacterial activity against non-gentamicin-resistant Haemophilus parainfluenzae clinical isolate assessed as susceptible isolates after 18 hrs by agar dilution method; assay type: functional, organism-based
# [24] = system: Klebsiella pneumoniae; test: Antibacterial activity against gentamicin-resistant Klebsiella pneumoniae clinical isolate assessed as susceptible isolates after 18 hrs by agar dilution method; assay type: functional
# [25] = system: Staphylococcus epidermidis; test: Antibacterial activity against gentamicin-resistant Staphylococcus epidermidis clinical isolate assessed as susceptible isolates after 18 hrs by agar dilution method; assay type: functional
# [26] = system: Staphylococcus epidermidis; test: Antibacterial activity against gentamicin-resistant Staphylococcus epidermidis clinical isolate after 18 hrs by agar dilution method; assay type: functional
# [27] = system: Escherichia coli BL21(DE3); test: Acetylation activity of AAC(6')-APH(2'') in Escherichia coli BL21(DE3) assessed as production of free pyridine-4-thiolate
# [28] = system: Enterobacter cloacae; test: Antibacterial activity against gentamicin-resistant Enterobacter cloacae clinical isolate after 18 hrs by agar dilution method; assay type: functional
# [29] = system: Serratia marcescens; test: Antibacterial activity against gentamicin-resistant Serratia marcescens clinical isolate assessed as susceptible isolates after 18 hrs by agar dilution method; assay type: functional
# [30] = system: Enterobacter cloacae; test: Antibacterial activity against non-gentamicin-resistant Enterobacter cloacae clinical isolate after 18 hrs by agar dilution method; assay type: functional
# [31] = system: Enterococcus faecalis; test: Antibacterial activity against gentamicin-resistant Enterococcus faecalis clinical isolate assessed as susceptible isolates after 18 hrs by agar dilution method; assay type: functional, organism-based
# [32] = system: Haemophilus parainfluenzae; test: Antibacterial activity against non-gentamicin-resistant Haemophilus parainfluenzae clinical isolate after 18 hrs by agar dilution method; assay type: functional
# [33] = system: Citrobacter freundii; test: Antibacterial activity against non-gentamicin-resistant Citrobacter freundii clinical isolate after 18 hrs by agar dilution method; assay type: functional
# [34] = system: Proteus mirabilis; test: Antibacterial activity against gentamicin-resistant Proteus mirabilis clinical isolate after 18 hrs by agar dilution method; assay type: functional
# [35] = system: Citrobacter freundii; test: Antibacterial activity against gentamicin-resistant Citrobacter freundii clinical isolate after 18 hrs by agar dilution method; assay type: functional
# [36] = system: Morganella morganii; test: Antibacterial activity against non-gentamicin-resistant Morganella morganii clinical isolate assessed as susceptible isolates after 18 hrs by agar dilution method; assay type: functional
# [37] = system: Escherichia coli BL21(DE3); test: Phosphorylation activity of AAC(6')-APH(2'') in Escherichia coli BL21(DE3) assessed as oxidation of NADH by pyruvate kinase
# [38] = system: Escherichia coli; test: Antibacterial activity against gentamicin-resistant Escherichia coli clinical isolate assessed as susceptible isolates after 18 hrs by agar dilution method; assay type: functional
# [39] = system: Klebsiella aerogenes; test: Antibacterial activity against non-gentamicin-resistant Enterobacter aerogenes clinical isolate assessed as susceptible isolates after 18 hrs by agar dilution method; assay type: functional
# [40] = system: Proteus mirabilis; test: Antibacterial activity against gentamicin-resistant Proteus mirabilis clinical isolate assessed as susceptible isolates after 18 hrs by agar dilution method; assay type: functional
# [41] = system: Providencia rettgeri; test: Antibacterial activity against non-gentamicin-resistant Proteus rettgeri clinical isolate assessed as susceptible isolates after 18 hrs by agar dilution method; assay type: functional
# [42] = system: Staphylococcus aureus; test: Antibacterial activity against non-gentamicin-resistant Staphylococcus aureus clinical isolate assessed as susceptible isolates after 18 hrs by agar dilution method; assay type: functional
# [43] = system: Proteus mirabilis; test: Antibacterial activity against non-gentamicin-resistant Proteus mirabilis clinical isolate assessed as susceptible isolates after 18 hrs by agar dilution method; assay type: functional
# [44] = system: Providencia rettgeri; test: Antibacterial activity against non-gentamicin-resistant Proteus rettgeri clinical isolate after 18 hrs by agar dilution method; assay type: functional
# [45] = system: Staphylococcus aureus; test: Antibacterial activity against gentamicin-resistant Staphylococcus aureus clinical isolate after 18 hrs by agar dilution method; assay type: functional
# [46] = system: Pseudomonas sp.; test: Antibacterial activity against non-gentamicin-resistant Pseudomonas spp. clinical isolate after 18 hrs by agar dilution method; assay type: functional
smiles,measurement,setting,value
CN[C@@H]1[C@@H](O)[C@@H](O[C@@H]2[C@@H](O)[C@H](O[C@@H]3OC(C(C)N)=CC[C@@H]3N)[C@@H](N)C[C@H]2N)OC[C@]1(C)O (stereo partly specified) [VERDAMICIN],MIC50,[1],> 128 µg/mL
same,MIC90,[1],> 128 µg/mL
same,MIC50,[2],0.5 µg/mL
same,MIC90,[2],32 µg/mL
same,MIC50,[3],1 µg/mL
same,MIC90,[3],2 µg/mL
same,Activity,[4],98.8%
same,MIC,[5],0.25 µg/mL
same,MIC50,[5],0.25 µg/mL
same,MIC90,[5],0.5 µg/mL
same,MIC50,[6],8 µg/mL
same,MIC90,[6],16 µg/mL
same,Activity,[7],72.2%
same,Activity,[8],5.3%
same,Activity,[9],5.6%
same,Activity,[10],96.3%
same,Activity,[11],8.3%
same,MIC50,[12],128 µg/mL
same,MIC90,[12],> 128 µg/mL
same,Activity,[13],2.9%
same,MIC50,[14],> 128 µg/mL
same,MIC90,[14],> 128 µg/mL
same,MIC50,[15],0.5 µg/mL
same,MIC90,[15],2 µg/mL
same,MIC50,[16],> 128 µg/mL
same,MIC90,[16],> 128 µg/mL
same,MIC50,[17],0.125 µg/mL
same,MIC90,[17],8 µg/mL
same,MIC50,[18],0.25 µg/mL
same,MIC90,[18],0.5 µg/mL
same,MIC50,[19],1 µg/mL
same,MIC90,[19],1 µg/mL
same,Activity,[20],3.8%
same,Activity,[21],98.2%
same,MIC50,[22],64 µg/mL
same,MIC90,[22],128 µg/mL
same,Activity,[23],inactive
same,Activity,[24],10.7%
same,Activity,[25],50%
same,MIC50,[26],8 µg/mL
same,MIC90,[26],> 128 µg/mL
same,Km,[27],656 µM
same,MIC50,[28],128 µg/mL
same,MIC90,[28],> 128 µg/mL
same,Activity,[29],10%
same,MIC,[30],0.25 µg/mL
same,MIC50,[30],0.25 µg/mL
same,MIC90,[30],0.5 µg/mL
same,Activity,[31],inactive
same,MIC50,[32],1 µg/mL
same,MIC90,[32],2 µg/mL
same,MIC50,[33],0.5 µg/mL
same,MIC90,[33],64 µg/mL
same,MIC50,[34],> 128 µg/mL
same,MIC90,[34],> 128 µg/mL
same,MIC50,[35],32 µg/mL
same,MIC90,[35],> 128 µg/mL
same,Activity,[36],100%
same,Km,[37],41.4 µM
same,Activity,[38],3.5%
same,Activity,[39],98.1%
same,Activity,[40],18.2%
same,Activity,[41],100%
same,Activity,[42],94.8%
same,Activity,[43],100%
same,MIC50,[44],2 µg/mL
same,MIC90,[44],8 µg/mL
same,MIC50,[45],32 µg/mL
same,MIC90,[45],> 128 µg/mL
same,MIC50,[46],2 µg/mL
same,MIC90,[46],8 µg/mL
